Test results published in patent US20220330547A1, “INSECT REPELLENT” (Rilis Co., Ltd., priority 2019, published 2022).
“And” between values parts separate entries of the source, which are not always exact repeats. Equal entries are not always repeated. Where two headings read alike, the source gives them in different places.

Tests used:
[1] = 25° C.; cited from earlier work
ticks [2] = conditions: 1 g/m^2, after 24 hours; for Mortality rate after correction (%): corrected by mortality rate without treatment
Procedure: Incidentally, a tick killing experiment was performed by a filter paper contact method to examine whether or not the insecticidal effect is contained in the repellent effect of 2,4-DHAP and xanthoxyline. In the experiment, ticks attracted to the untreated site in the repellent test by the petri-dish method were obtained on a filter paper by the sodium chloride floatation method, and living ticks were gently taken with a fine brush (one stroke). A 5 cm x 10 cm filter paper permeated with 1 g/m^2 of a sample was dried in air and shaped into a bag form. The taken ticks were put therein, and the opening thereof was closed with clips. After 24 hours, living ticks and dead ticks were measured.
In the tick killing test, 2,4-DHAP, xanthoxyline and DEET were compared. DEET is a compound used as a repellent for e.g. insects (anti-insect agent), and is also called N,N-diethyl-3-methylbenzamide or N,N-diethyl-m-toluamide.
In Table 3, the mortality rates (%) of 2,4-DHAP, xanthoxyline and DEET are values corrected by the mortality rate without treatment based on the mortality rate without treatment.

[3] = oxidative modification of sample on filter paper, 40° C. for a week, measured by chromatography; type: physicochemical; conditions: for Variation (Oxidation) (%): decrease of area after 1 week at 40° C.; for Day of experiment (area): filter paper 1 g/m^2, measured on the day; for After 1 week (area): filter paper 1 g/m^2, sealed flask, 40° C., 150 rpm, a week
ticks [4] = experiment: tick repellency test (petri dish) with filter paper heated at 150° C.; type: in vivo; conditions: 24 hours
Procedure: Subsequently, a relationship between the tick repellent effect resulting from a difference in oxidative modification rate and time was examined. In the test, mixed farnesyl acetone isomers, trans-farnesyl acetone, 2,4-DHAP and xanthoxyline were each dissolved to 1 g/m^2 in acetone, and each filter paper added thereto was heated at 150° C. only for 3 minutes, 5 minutes or 26 minutes. The filter paper not heated (hereinafter referred to as 150° C., 0 min) was also prepared.
Each filter paper was placed on the center of a petri dish with a diameter of 4 cm, and 0.05 g of an attractant sample was placed on the center of filter paper. The petri dish was placed on the center of another petri dish with a diameter of 9 cm, and about 10000 ticks were provided together with a medium to this another petri dish, which was left to stand for 24 hours. After that, ticks in the 4 cm petri dish were counted.
For the repellency rate, the proportion of the number of ticks which had not been attracted was calculated by the following formula using the number of ticks entering the petri dish on which only the attractant sample was placed, x (control), and contrarily the number of ticks entering the petri dish on which mixed farnesyl acetone isomers, trans-farnesyl acetone, 2,4-DHAP or xanthoxyline was placed, n.
Repellency rate={(x−n)/x} x 100 (%)
* a small number of entering ticks =high repellency rate
It should be noted that the heating time at 150° C. is not described in detail herein, but was converted by the following Arrhenius equation described in “Sumie Yoshioka, Stability of drugs and dosage forms, p. 142, 1995, Nankodo Co., Ltd.” as in Drug testing on Stability studies.
Arrhenius equation: k =A exp (-E/RT)
* Activation energy of stability studies E=22.1 kcal/mol.

ticks [5] = conditions: maintained over 14 days; cited from earlier work
ticks [6] = experiment: repellent effect of farnesyl acetone in an environment of 150° C. (background statement); type: in vivo
Procedure: For example, if there is a heat treatment step in the step of the anti-tick treatment, because oxidation reactivity due to heat is high, the repellent effect is already reduced to 30% or less after about 3 minutes in an environment of 150° C., and the repellent effect is reduced to 0% by at most 60 minutes. That is to say, it is troublesome to subject living materials of interest to the anti-tick treatment.

[7] = 1 g/m^2, 150° C. 0 min (not heated)
[8] = 1 g/m^2, 150° C. 3 min (corresponding to 25° C., about 4 months)
[9] = 1 g/m^2, 150° C. 5 min (corresponding to 25° C., about 7 months)
[10] = 1 g/m^2, 150° C. 26 min (corresponding to 25° C., about 3 years)

Row | SMILES | transpiration properties [1] | Dead ticks (ticks [2]; Average) | Living ticks (ticks [2]; Average) | Mortality rate (%) (ticks [2]; Average) | Living ticks (ticks [2]; single run) | Mortality rate (%) (ticks [2]; single run) | Mortality rate after correction (%) (ticks [2]; single run) | Variation (Oxidation) (%) [3] | Day of experiment (area) [3] [area] | After 1 week (area) [3] [area] | Repellency rate (ticks [4]; [7]) [%] | Repellency rate (ticks [4]; [8]) [%] | Repellency rate (ticks [4]; [9]) [%] | Repellency rate (ticks [4]; [10]) [%] | also measured
1 | CC(=O)c1ccc(O)cc1O [2,4-DHAP, 2′,4′-dihydroxyacetophenone] | 6×10^-5 mmHg | 4 | 106 | 3.4 | 81 and 131 | 2.4% and 4.4% | 0.0% | 7.4% and 7.46% | 12027833 | 11130386 | 39.80 | 37.40 |  |  | 
2 | CC(=O)CCC=C(C)CCC=C(C)CCC=C(C)C [farnesyl acetone] |  |  |  |  |  |  |  |  |  |  |  |  |  |  | repellent effect (ticks [5]): ≥ 95%; repellent effect (ticks [6]; after about 3 minutes at 150° C.): ≤ 30%; repellent effect (ticks [6]; by at most 60 minutes at 150° C.): 0%
3 | CC(=O)CC/C=C(\C)CC/C=C(\C)CCC=C(C)C [trans-Farnesyl acetone] |  |  |  |  |  |  |  | 19.29% | 4022168 | 3246218 | 94.30 | 90.50 | 65.70 | 0.00 | Variation (Oxidation) (%) ([3]; listed as trans-farnesyl acetone): 19.29%; Repellency rate (ticks [4]; 1 g/m^2, 150° C. 5 min (corresponding to 25° C., about 7 months), listed as trans-farnesyl acetone): below 65%
4 | CC(=O)CCC=C(C)CCC=C(C)CCC=C(C)C (mixture of isomers) [Mixed farnesyl acetone isomers, farnesyl acetone] |  |  |  |  |  |  |  | 67.10% | 3145831 | 1038335 | 90.60 | 94.90 | 24.60 | 17.60 | Variation (Oxidation) (%) ([3]; listed as mixed farnesyl acetone isomers): 67.10%; Repellency rate (ticks [4]; 1 g/m^2, 150° C. 5 min (corresponding to 25° C., about 7 months), listed as mixed farnesyl acetone isomers): 30%; Repellency rate (ticks [4]; 1 g/m^2, 150° C. 26 min (corresponding to 25° C., about 3 years), listed as mixed farnesyl acetone isomers): 17.6%
5 | CCN(CC)C(=O)c1cccc(C)c1 [DEET, N,N-diethyl-3-methylbenzamide, reference compound] |  | 62 | 2 | 96.2 |  | 100.0% and 92.3% | 100.0% and 91.5% |  |  |  |  |  |  |  | Mortality rate after correction (%) (ticks [2]; Average): 95.8%
6 | COc1cc(O)c(C(C)=O)c(OC)c1 [Xanthoxyline] | 1.5×10^-5 mmHg | 24 | 75 |  | 90 and 59 |  |  | 2.42% | 5756751 | 5617299 | 92.40 | 97.40 | 95.80 | 93.00 | Dead ticks (ticks [2]; single run): 26 and 22; Variation (Oxidation) (%) ([3]; listed as xanthoxyline): 2.42%; Repellency rate (ticks [4]; 1 g/m^2, 150° C. 3 min (corresponding to 25° C., about 4 months), listed as xanthoxyline): ≥ 90%; Repellency rate (ticks [4]; 1 g/m^2, 150° C. 5 min (corresponding to 25° C., about 7 months), listed as xanthoxyline): ≥ 90%
